From patent US20120053235A1, “Dihydromyricetin as an IKK-beta inhibitor used for treatment of arthritis, cancer and autoimmune conditions, and other diseases or disorders” (HONG KONG BAPTIST UNIVERSITY, priority 2010, published 2012)

What was measured:
[1] = system: IKK-α/β phosphorylation in human T lymphocytes; assay: Measurement of the phosphorylation of IKK α/β (Western blot); format: cell-based; conditions: mediated by PMA/ionomycin or anti-OKT-3/anti-CD28; FIG. 4B
Procedure: Human T lymphocytes (4×10^6/well) were pretreated with DMY in different concentrations for 60 minutes and then the cells were stimulated with PMA/ionomycin for 30 minutes.
The whole-cell lysates were prepared by lysing the harvested T cells with lysis buffer (50 mM Tris-HCl, pH 7.5, 250 mM NaCl, 5 mM EDTA, 1 mM DTT, 1% Triton, 50 mM NaF, 1 mM sodium orthovanadate, 0.5 mM PMSF and 1× protease inhibitor mix, Roche). Protein concentrations were determined by using Bio-Rad Protein assay (Bio-Rad Laboratories, Inc. Hercules, Calif.). Equal amount of nuclear proteins or whole-cell lysates were analyzed by 10% SDS-polyacrylamide gel electrophoresis (SDS-PAGE). After electrophoresis, the proteins were electro-transferred to the nitrocellulose membranes. After proteins were transferred, the membranes were blocked by 5% dried milk for 60 minutes and then washed three times for 5 minutes in washing interval with TBS-T (Tween-20, 0.05%). The membranes were then incubated with phosphorylation-IKK-α/β primary antibodies overnight at 4° C. and then washed three times with TBS-T. Afterwards, the membranes were incubated again with HRP-conjugated secondary antibodies for 60 minutes. The blots were developed using the enhanced chemiluminescence (ECL, Amersham Bioscience).

JNK phosphorylation = assay: Phosphorylation of MAPKs (Western blot): JNK; format: cell-based, human; conditions: PMA plus ionomycin 10 minutes; FIG. 7
Procedure: (§1) For determination of the phosphorylation of mitogen-activated protein kinases expression, the cells were stimulated by 20 ng/ml PMA plus […] ionomycin for 10 minutes. The whole-cell lysates were prepared by lysing the harvested T cells with lysis buffer (50 mM Tris-HCl, pH 7.5, 250 mM NaCl, 5 mM EDTA, 1 mM DTT, 1% Triton, 50 mM NaF, 1 mM sodium orthovanadate, 0.5 mM PMSF and 1× protease inhibitor mix, Roche).
(§2) Protein concentrations were determined by using Bio-Rad Protein assay. Equal amounts of nuclear proteins or whole-cell lysates were analyzed by 10% SDS-PAGE. After electrophoresis, the proteins were electro-transferred to the nitrocellulose membranes. After proteins were transferred, the membranes were blocked by 5% dried milk for 60 minutes and then washed three times for 5 min in each washing interval with TBS-T. The membranes were incubated with corresponding primary antibodies overnight at 4° C. and then washed with three times with TBS-T. Afterwards, the membranes were incubated again with HRP-conjugated secondary antibodies for 60 minutes. The blots were developed using the ECL.

[2] = biological target: T1, His-tagged recombinant human IKK-β (Homo sapiens, UniProt O14920); assay: IKK activity assay (K-LISA IKK-β-Inhibitor Screening Kit); format: biochemical; conditions: DMY at 50 μM and 100 μM; FIG. 4A
T1 construct: His; purchased Calbiochem
T1 sequence (O14920 1-756): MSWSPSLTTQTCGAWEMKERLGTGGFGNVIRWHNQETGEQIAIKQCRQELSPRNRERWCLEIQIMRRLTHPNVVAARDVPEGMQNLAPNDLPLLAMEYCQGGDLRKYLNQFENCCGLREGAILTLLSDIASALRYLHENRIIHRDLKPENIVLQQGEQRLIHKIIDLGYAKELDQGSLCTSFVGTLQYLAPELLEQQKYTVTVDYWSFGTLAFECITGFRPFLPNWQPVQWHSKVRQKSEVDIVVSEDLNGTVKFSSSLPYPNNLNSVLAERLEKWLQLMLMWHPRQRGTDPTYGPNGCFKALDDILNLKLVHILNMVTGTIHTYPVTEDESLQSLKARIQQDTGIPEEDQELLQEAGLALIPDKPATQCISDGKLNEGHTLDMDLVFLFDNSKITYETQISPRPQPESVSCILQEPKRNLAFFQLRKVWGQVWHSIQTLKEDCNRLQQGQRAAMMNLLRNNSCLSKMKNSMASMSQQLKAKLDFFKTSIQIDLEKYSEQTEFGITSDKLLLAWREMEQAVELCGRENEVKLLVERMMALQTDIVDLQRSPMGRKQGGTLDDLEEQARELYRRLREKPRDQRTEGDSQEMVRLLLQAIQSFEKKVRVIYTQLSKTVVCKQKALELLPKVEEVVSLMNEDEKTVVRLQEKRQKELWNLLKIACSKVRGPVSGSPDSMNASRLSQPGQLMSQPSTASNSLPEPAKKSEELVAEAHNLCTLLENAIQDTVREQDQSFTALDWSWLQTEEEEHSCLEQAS
Procedure: The direct inhibitory effect of DMY on IKK activity was examined by using K-LISA™ IKK-β-Inhibitor Screening Kit (Calbiochem). Both the glutathione-S-transferase (GST)-IκB-α substrate and His-tagged recombinant human IKK-β were incubated with or without DMY in the wells of a glutathione-coated 96-well plate. The reaction was terminated with the addition of kinase stop solution after being incubated at 30° C. for 30 minutes. Then, anti-Phospho IκB-α (Ser32/Ser36) antibody was used to determine the phosphorylated GST-IκB-α substrate, and the horse radish peroxidase (HRP)-conjugated color was developed by 3,3′,5,5′-tetramethylbenzidine (TMB) substrate. ELISA stop solution was used to stop the color development and the absorbance was measured at 450 nm the wavelength at which was directly related to the level of IKK activity.

[3] = system: c-Fos nuclear translocation in human T lymphocytes; assay: c-Fos nuclear translocation assay (Western blot); format: cell-based; conditions: pretreated 1 hour, PMA plus ionomycin 120 minutes
Procedure: For c-Jun and c-Fos nuclear translocation assays, the human T lymphocytes (6×10^6/well) were pretreated with DMY for 1 hour, and then stimulated with 20 ng/ml PMA plus […] ionomycin for 120 minutes. After the cells were harvested and washed with PBS twice, the nuclear proteins of cells were then prepared using NucBuster™ Reagents. Afterwards, the washed cells were re-suspended using 60 μl NucBuster™ Reagent 1 per 30 μl of packed cells and processed twice by vortexing for 15 seconds, and followed by the incubation on ice for 5 minutes and second vortexing for 15 seconds, and finally centrifuged at 16000 g for 5 minutes. The supernatants containing cytoplasmic proteins were discarded; the cell pellets were re-suspended in 45 μl of NucBuster Extraction Reagent 2. The same vortexing, icing, and repeated vortexing steps were repeated once to prepare the nuclear proteins of the cells.
Protein concentrations were determined by using Bio-Rad Protein assay. Equal amounts of nuclear proteins or whole-cell lysates were analyzed by 10% SDS-PAGE. After electrophoresis, the proteins were electro-transferred to the nitrocellulose membranes. […]

[4] = system: c-Fos nuclear localization in HeLa cells; assay: Nuclear localization of c-Fos (immunofluorescence); format: cell-based; conditions: DMY 2 hours then PMA plus ionomycin 2 hours, FIGS. 7 and 8
Procedure: HeLa cells (1×10^5) were seeded on the 6-well plates with cover slips and cultured overnight. The cells were treated with DMY for 2 hours at 37° C and then stimulated with or without 20 ng/ml PMA plus 1 μM ionomycin for another 2 hours. After stimulation, the cells were fixed with 4% paraformaldehyde for 15 minutes at room temperature and permeabilized by 0.1% Triton X-100 and then stained with phalloidin (Invitrogen) for 3 minutes. The cells were incubated with c-Fos antibody for 2 hour after being stained with phalloidin, and the cells were then incubated with FITC-linked secondary antibody for 1 hour after being washed with PBS for 3 times. The slides were dried in air and mounted onto the glass slides.

[5] = system: p38 kinase phosphorylation; assay: Phosphorylation of MAPKs (Western blot): p38; format: cell-based, human; conditions: PMA plus ionomycin 10 minutes; FIG. 7
Procedure: as §1, §2

O=C1c2c(O)cc(O)cc2O[C@H](c2cc(O)c(O)c(O)c2)[C@H]1O [DMY, dihydromyricetin]
IKK-α/β phosphorylation [1]: inhibit IKK-ca/3 phosphorylation | JNK phosphorylation (JNK phosphorylation): suppressed | activity of IKK-β [2]: significantly inhibited the activity of IKK-β | nuclear translocation of c-Fos [3]: suppress nuclear translocation | c-Fos nuclear localization [4]: suppress c-Fos nuclear localization | p38 kinase phosphorylation [5]: suppressed
